Data published in US20100221763A1, “Specific Acceptors for Transferases to Saccharides and Method for Obtaining and Using Same” (Health Research, Inc, priority 2005, published 2010).
“And” between values parts separate entries of the source, which are not always exact repeats. Equal values may be shown once. Marks after values point to notes of the source that are not given here.

Columns and labels:
LNCaP α2,3(O)ST = experiment: Sialyltransferase assay with LNCaP cell extract; format: biochemical, human; conditions: for LNCaPα2,3(O)ST %: Table III, compound 7.5 mM, 100% = 30100 CPM (3-O-MeGalβ1,4GlcNAcβ1,6(Galβ1,3)GalNAcα-O-Bn); for Sialyltransferase activity (%) LNCaP α2,3(O)ST: Table I, acceptor 7.5 mM, 100% = 30930 CPM (3-O-MeGalβ1,4GlcNAcβ1,6(Galβ1,3)GalNAcα-O-Bn)
Experimental: The prostate carcinoma cell line, LNCaP, was grown in RPMI 1640 supplemented with 10% fetal bovine serum and antibiotics (penicillin, streptomycin and amphotericin B) under conditions recommended by American Type Culture Collection (Manassas, Va.). The cells were homogenized with 0.1M Tris-Maleate pH6.3 containing 2% Triton X-100 using a Dounce all glass hand-operated homogenizer. The homogenate was centrifuged at 16,000 g for 1 h at 4° C. Protein concentration in supernatant was measured using the BCA assay (Pierce Biotech, Inc., Rockford, Ill.), with BSA as the standard. The supernatant was adjusted to 5 mg protein/ml by adding the necessary amount of extraction buffer and then stored frozen at −20° C. until use. 10 μl aliquot of this extract was used in assays run in duplicate.
(§1) The incubation mixtures run in duplicate contained 0.1M NaCacodylate buffer pH6.0, the acceptor (typically at 7.5 mM, or as indicated in some experiments), CMP-[9 ^3H] NeuAc (typically 0.2 μci; 20 μci/nmol or as indicated in some experiments) and the enzyme in a total volume of 20 μl. The control incubation mixtures contained everything except the acceptor. Incubation was carried out for 2 h at 37° C. The enzymatic transfer of [9-^3H] NeuAc to a typical acceptor was linear for 2 h and less than 30% CMP-[9-^3H] NeuAc was utilized. Chromatography, using either Dowex-1-Formate, Sep-Pak C18 or Biogel P2, was applied to separate radioactive product from un-reacted [9-^3H] NeuAc as described below.
(§2) The radioactive products from neutral allyl and methyl glycosides as well as non-glycosides were measured by fractionation on Dowex-1-Formate (Bio-Rad: AG-1X8; 200-400 mesh; format form) as follows: The incubation mixture was diluted with 1.0 ml water and passed through AG-1-formate column (1.0 ml bed volume in a Pasteur pipet which had been washed with 5 ml of 2M Formic acid followed by 10 ml water). The column was washed twice with 1.0 ml water after the entry of the sample and then eluted with 3.0 ml of 0.1M NaCl. The radioactivity present in water and 0.1M NaCl eluates were measured separately using 3a70 scintillation cocktail (Research Products International, Mount Prospect, Ill.) and a Beckman LS6500 scintillation counter. The CPM values were corrected by subtracting the blank CPM. Any radioactivity present in the water eluate (as noticed in the case of some methylglycosides) was added to the corresponding CPM value of 0.1M NaCl eluate. The radioactive products from sulfated and/or sialylated methylglycosides were also measured by the above procedure, only the elution of the AG-1-Formate column was continued further with 3.0 ml of 0.2M NaCl for achieving a complete elution of the radioactive product, a correction being made as before by subtracting the corresponding blank values.
(§3) The radioactive products from benzylglycosides and monosialylated benzylglycosides were measured by hydrophobic chromatography on Sep-Pak C18 cartridge (Waters, Milford, Mass.) and eluting the product with 3.0 ml methanol (30). The radioactivity was determined by liquid scintillation as above.
(§4) For such work, a Biogel P2 column (Fine Mesh; 1.0×116.0 cm) was used with 0.1M pyridine acetate pH5.4 as the eluent at room temperature. The effluent fractions were monitored for radioactivity and the first peak containing radioactivity was collected, lyophilized to dryness, dissolved in 200 μl of water and stored frozen at −20° C. for thin layer chromatography (TLC) and other experimentation.

[1] = molecular target: T1, Rat recombinant α2,3(O)ST (Rattus norvegicus, UniProt Q11205); experiment: Sialyltransferase assay with cloned α2,3(O)ST; format: biochemical; conditions: for Cloned Sialyltransferase Activities α2,3(O) ST %: Table III, compound 7.5 mM, 100% = 39200 CPM (3-O-MeGalβ1,4GlcNAcβ1,6(Galβ1,3)GalNAcα-O-Bn); for Sialyltransferase activity (%) Cloned α2,3(O)ST: Table I, acceptor 7.5 mM, 100% = 40560 CPM (3-O-MeGalβ1,4GlcNAcβ1,6(Galβ1,3)GalNAcα-O-Bn)
T1 construct: purchased Calbiochem
T1 sequence (Q11205 1-350): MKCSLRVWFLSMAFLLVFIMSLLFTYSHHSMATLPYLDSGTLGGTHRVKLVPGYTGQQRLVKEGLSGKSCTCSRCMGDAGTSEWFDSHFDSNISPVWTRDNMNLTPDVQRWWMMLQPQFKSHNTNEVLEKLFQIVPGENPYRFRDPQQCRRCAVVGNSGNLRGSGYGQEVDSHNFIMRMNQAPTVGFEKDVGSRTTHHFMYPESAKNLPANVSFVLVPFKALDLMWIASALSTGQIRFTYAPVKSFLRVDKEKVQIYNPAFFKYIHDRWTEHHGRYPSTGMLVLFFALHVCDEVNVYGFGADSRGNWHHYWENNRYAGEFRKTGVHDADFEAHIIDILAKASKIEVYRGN
Experimental: (§5) Rat recombinant α2,3(O)ST, α2,3(N)ST and α2,6(N)ST were purchased from Calbiochem and stored at either −20° C. or −70° C. as recommended by the supplier. […] 10 μl aliquots of the diluted enzymes were used in the assays run in duplicate.
as §1, §2, §3, §4

[2] = molecular target: T2, Rat recombinant α2,3(N)ST (Rattus norvegicus, UniProt Q02734); experiment: Sialyltransferase assay with cloned α2,3(N)ST; format: biochemical; conditions: for Cloned Sialyltransferase Activities α2,3(N) ST %: Table III, compound 7.5 mM, 100% = 38140 CPM (Galβ1,4GlcNAcβ1,6(3-O-MeGalβ1,3)GalNAcα-O-Bn); for Sialyltransferase activity (%) Cloned α2,3(N)ST: Table I, acceptor 7.5 mM, 100% = 29520 CPM (Galβ1,4GlcNAcβ-O—Al)
T2 construct: purchased Calbiochem
T2 sequence (Q02734 29-374 limits assumed): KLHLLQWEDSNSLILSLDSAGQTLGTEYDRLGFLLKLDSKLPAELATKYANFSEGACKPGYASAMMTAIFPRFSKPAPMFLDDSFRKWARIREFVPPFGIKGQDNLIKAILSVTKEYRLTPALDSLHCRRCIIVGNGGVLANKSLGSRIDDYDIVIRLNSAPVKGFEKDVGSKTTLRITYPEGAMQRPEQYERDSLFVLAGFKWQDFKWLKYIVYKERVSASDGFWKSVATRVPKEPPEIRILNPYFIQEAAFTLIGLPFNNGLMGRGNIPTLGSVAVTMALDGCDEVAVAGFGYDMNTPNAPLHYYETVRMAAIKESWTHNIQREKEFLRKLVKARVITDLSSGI
Experimental: as §5, §1, §2, §3, §4

[3] = molecular target: T3, Rat recombinant α2,6(N)ST (Rattus norvegicus, UniProt P13721); experiment: Sialyltransferase assay with cloned α2,6(N)ST; format: biochemical; conditions: for Cloned Sialyltransferase Activities α2,6(N)ST %: Table III, compound 7.5 mM, 100% = 30440 CPM (Galβ1,4GlcNAcβ1,6(3-O-MeGalβ1,3)GalNAcα-O-Bn); for Sialyltransferase activity (%) Cloned α2,6(N)ST: Table I, acceptor 7.5 mM, 100% = 43500 CPM (Galβ1,4GlcNAcβ-O—Al)
T3 construct: purchased Calbiochem
T3 sequence (P13721 1-403): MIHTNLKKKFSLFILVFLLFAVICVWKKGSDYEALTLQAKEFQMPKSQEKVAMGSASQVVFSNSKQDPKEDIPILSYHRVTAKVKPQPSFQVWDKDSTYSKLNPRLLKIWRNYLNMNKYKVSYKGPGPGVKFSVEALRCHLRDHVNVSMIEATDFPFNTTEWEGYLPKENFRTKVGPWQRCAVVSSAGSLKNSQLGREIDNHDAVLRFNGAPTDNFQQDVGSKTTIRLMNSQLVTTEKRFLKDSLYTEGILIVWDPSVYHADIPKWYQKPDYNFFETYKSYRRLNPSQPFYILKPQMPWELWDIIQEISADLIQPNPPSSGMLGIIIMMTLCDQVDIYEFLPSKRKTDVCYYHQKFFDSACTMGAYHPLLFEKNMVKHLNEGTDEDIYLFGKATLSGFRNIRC
Experimental: as §5, §1, §2, §3, §4

Cloned Sialyltransferase Activities α2,3(O) ST % [1] [%]	Cloned Sialyltransferase Activities α2,3(N) ST % [2]	α2,3(N)ST activity compared to Galβ1,4GlcNAcβ1,6(Galβ1,3)GalNAcα-O-Bn (FIG. 3B) ([2]; lowest concentration tested, 0.05 mM)	α2,3(N)ST activity compared to Galβ1,4GlcNAcβ1,6(Galβ1,3)GalNAcα-O-Bn (FIG. 3B) ([2]; maximum concentration tested, 0.25 mM)	Cloned Sialyltransferase Activities α2,6(N)ST % [3]	α2,6(N)ST activity at varying acceptor concentration (FIG. 3A) ([3]; maximum concentration tested, 0.75 mM)	Sialyltransferase activity (%) Cloned α2,3(O)ST [1] [%]	Sialyltransferase activity (%) Cloned α2,3(N)ST [2]	Sialyltransferase activity (%) Cloned α2,6(N)ST [3]	Sialyltransferase activity (%) Cloned α2,3(N)ST ([2]; listed as Galβ1,4(6-O-Sulfo)GlcNAcβ1,6(Galβ1,3)GalNAcα-) [%]	SMILES	LNCaPα2,3(O)ST % (LNCaP α2,3(O)ST) [%]	Sialyltransferase activity (%) LNCaP α2,3(O)ST (LNCaP α2,3(O)ST) [%]	acceptor concentration at which maximum activity is reached (FIG. 3D) (LNCaP α2,3(O)ST; LNCaPα2,3(O)ST) [mM]
103.0	99.8%	four fold	two-fold	12.6%	almost inactive	–	–	–	–	CO[C@@H]1[C@H](O)[C@@H](O)[C@H](O[C@H]2[C@H](O)[C@@H](NC(C)=O)[C@H](OC[C@H]3O[C@H](OCc4ccccc4)[C@H](NC(C)=O)[C@@H](O[C@@H]4O[C@H](CO)[C@H](O)[C@H](O)[C@H]4O)[C@H]3O)O[C@@H]2CO)O[C@@H]1CO [4-O-MeGalβ1,4GlcNAcβ1,6(Galβ1,3)GalNAcα-O-Bn]	97.1	–	–
–	–	–	–	–	–	42.1	123.1%	3.0%	–	C=CCOC1OC(CO)C(O)C(OC2OC(CO)C(O)C(O)C2O)C1NC(C)=O (stereo not shown) [Galβ1,3GlcNAcβ-O—Al]	–	3.7	–
–	–	–	–	–	–	27.2	28.1% and 28.1^21%	30.6^17%	28.1	CO[C@H]1O[C@H](CO[C@@H]2O[C@H](COS(=O)(=O)O)[C@@H](O[C@@H]3O[C@H](CO)[C@H](O)[C@H](O)[C@H]3O)[C@H](O)[C@H]2NC(C)=O)[C@H](O)[C@H](O[C@@H]2O[C@H](CO)[C@H](O)[C@H](O)[C@H]2O)[C@H]1NC(C)=O [Galβ1,4(6-O-Sulfo)GlcNAcβ1,6(Galβ1,3)GalNAcα-O-Me]	–	14.8	–
77.2	96.9^25%	–	–	77.7^19%	–	–	–	–	–	CC(=O)N[C@H]1[C@H](OC[C@H]2O[C@H](OCc3ccccc3)[C@H](NC(C)=O)[C@@H](O[C@@H]3O[C@H](CO)[C@H](O)[C@H](F)[C@H]3O)[C@H]2O)O[C@H](CO)[C@@H](O[C@@H]2O[C@H](CO)[C@H](O)[C@H](O)[C@H]2O)[C@@H]1O [Galβ1,4GlcNAcβ1,6(3-FGalβ1,3)GalNAcα-O-Bn]	1.7	–	–
49.6	100.0^b %	–	–	100.0^a %	–	49.6	95.3%	97.7%	–	CO[C@H]1[C@@H](O)[C@@H](CO)O[C@@H](O[C@H]2[C@@H](O)[C@@H](CO[C@@H]3O[C@H](CO)[C@@H](O[C@@H]4O[C@H](CO)[C@H](O)[C@H](O)[C@H]4O)[C@H](O)[C@H]3NC(C)=O)O[C@H](OCc3ccccc3)[C@@H]2NC(C)=O)[C@@H]1O [Galβ1,4GlcNAcβ1,6(3-O-MeGalβ1,3)GalNAcα-O-Bn]	3.0	3.0	–
101.3	100.6%	–	–	101.3%	–	–	–	–	–	CO[C@@H]1[C@H](O)[C@@H](O)[C@H](O[C@H]2[C@@H](O)[C@@H](CO[C@@H]3O[C@H](CO)[C@@H](O[C@@H]4O[C@H](CO)[C@H](O)[C@H](O)[C@H]4O)[C@H](O)[C@H]3NC(C)=O)O[C@H](OCc3ccccc3)[C@@H]2NC(C)=O)O[C@@H]1CO [Galβ1,4GlcNAcβ1,6(4-O-MeGalβ1,3)GalNAcα-O-Bn]	112.0	–	0.15
–	–	–	–	–	–	4.7	100.0^a %	100.0% and 100.0^b %	–	C=CCO[C@@H]1O[C@H](CO)[C@@H](O[C@@H]2O[C@H](CO)[C@H](O)[C@H](O)[C@H]2O)[C@H](O)[C@H]1NC(C)=O [Galβ1,4GlcNAcβ-O—Al]	–	0.5	–
